The source of these data is patent publication US9193718B2, “Quinazoline derivative and application thereof” (FUJIAN INSTITUTE OF RESEARCH ON THE STRUCTURE OF MATTER, …, priority 2012, dated 2015).

The target in this assay is T1, Tyrosine kinase (EGFR) (Homo sapiens, UniProt P00533).
T1 construct: made in house
As to the kind of experiment: EGFR tyrosine kinase inhibition by Enzyme-Linked Immunosorbent assay. The assay is classed as biochemical. To be noted: compound at a concentration of 100 μM; ATP 5 μM; substrate poly(Glu,Tyr)4:1. The text has this:
Tyrosine kinase (EGFR) was expressed using a baculovirus expression system, and purified by using a Ni-NTA affinity chromatography. After tested, it was consistent with experimental standard. Poly(Glu,Tyr)4:1 (Sigma), Monoclonal Anti-Phosphotyrosine antibody PY99 (Santa Cruz), horseradish peroxidase-labeled goat anti-mouse IgG (Calbiochem), ATP, DTT, OPD (Amresco), microplates (Corning). Other reagents were all commercially available with analytical grade purity, which were not treated before use if no special instructions present. Isopropanol was dried with molecular sieves before use.
Quinazoline compounds represented by formula (I) and their pharmaceutically acceptable salts according to the present invention are used as EGFR inhibitors. The activity of the particularized compounds for inhibiting EGFR was determined by Enzyme-Linked Immunosorbent assay.
Detailed experimental procedure is as follows:
(1) Kinase reaction substrate poly(Glu,Tyr)4:1 was diluted to 20 μg/mL with potassium-free PBS, and the microplates were coated. After the reaction was for 12-16 h at 37° C., the liquid in the wells was removed.
(2) The plates were washed with T-PBS for three times, 10 min each time.
(3) The microplates were dried in an oven at 37.
(4) The samples to be tested were added into the wells of the coated microplates (wherein the samples to be tested were formulated to a 1×10^−2M stock solution with DMSO, and diluted to the desired concentration with reaction buffer before use. The resulted solution was added into the wells and then allowed to achieve the corresponding final concentration in 100 μL reaction system.
(5) the addition of ATP and tested tyrosine kinases
ATP solution diluted with reaction buffer (the final concentration of ATP is 5 μM) and the tested tyrosine kinases solution diluted with reaction buffer were added. The total volume of the reaction is 100 μL. Meanwhile the negative control wells and the control wells without enzyme were set up.
(6) The reaction system was placed in a wet box, and shaked for 1 hour at 37° C. shielding from light. After the reaction was complete, the plates were washed with T-PBS for three times.
(7) Antibody PY99 was added into each well (100 μL/well); and the plates were shaked for 30 min at 37° C. After the reaction was complete, the plates were washed with T-PBS for three times.
(8) 100 μL horseradish peroxidase-labeled goat anti-mouse IgG was added into each well, and the plates were shaked for 30 min at 37° C. The plates were washed with T-PBS for three times.
(9) 100 μL OPD developing liquid was added in each well, and was reacted for 1-10 min at room temperature shielding from light.
(10) 2M H2SO4 was added into each well to terminate the reaction. A490 value was determined using wavelength-tunable microplate reader. The inhibition ratio can be calculated by the following formula: […]
According to the above-described activity test method, the activity of inhibiting EGFR enzyme of the compounds represented by formula (I) or salts thereof were calculated.
In the case of `c1ccc(-c2cc(COc3ncnc4ccccc34)on2)cc1` [Compound Q-1, 4-((3-phenyl-isoxazol-5-yl)-methoxy-)-quinazoline], the “EGFR inhibition rate (%)” value was 18.0%.

Regarding `COc1ccc(-c2cc(COc3ncnc4ccccc34)on2)cc1` [Compound Q-3], the “EGFR inhibition rate (%)” value was 7.3%.

Take `Clc1ccccc1-c1cc(COc2ncnc3ccccc23)on1` [Compound Q-4]: the “EGFR inhibition rate (%)” value was found to be 25.8%.

With `Clc1ccc(-c2cc(COc3ncnc4ccccc34)on2)cc1` [Compound Q-5], the “EGFR inhibition rate (%)” value amounted to 16.7%.

Turning to `Clc1ccc(-c2cc(COc3ncnc4ccccc34)on2)c(Cl)c1` [Compound Q-6], the “EGFR inhibition rate (%)” value is given as 22.7%.

As to `Brc1ccc(-c2cc(COc3ncnc4ccccc34)on2)cc1` [Compound Q-7], the “EGFR inhibition rate (%)” value is 15.7%.

Take `COc1cc2ncnc(OCc3cc(-c4ccccc4)no3)c2cc1OC` [Compound Q-15, 6,7-dimethoxy-4-((3-phenyl-isoxazol-5-yl)-methoxy-)-quinazoline]: the “EGFR inhibition rate (%)” value came out at 30.7%.

Turning to `COc1ccc(-c2cc(COc3ncnc4cc(OC)c(OC)cc34)on2)cc1` [Compound Q-17], the “EGFR inhibition rate (%)” value turned out to be 47.0%.

Turning to `COc1cc2ncnc(OCc3cc(-c4ccccc4Cl)no3)c2cc1OC` [Compound Q-18], the “EGFR inhibition rate (%)” value is 1.2%.

In the case of `COc1cc2ncnc(OCc3cc(-c4ccc(Cl)cc4)no3)c2cc1OC` [Compound Q-19], the “EGFR inhibition rate (%)” value amounted to 14.5%.

Consider `COc1cc2ncnc(OCc3cc(-c4ccc(Cl)cc4Cl)no3)c2cc1OC` [Compound Q-20], for which the “EGFR inhibition rate (%)” value is given as 29.8%.

With `COc1cc2ncnc(OCc3cc(-c4ccc(Br)cc4)no3)c2cc1OC` [Compound Q-21], the “EGFR inhibition rate (%)” value is 30.9%.

On to `COCCOc1cc2ncnc(OCc3cc(-c4ccccc4)no3)c2cc1OCCOC` [Compound Q-29, (6,7-bis(2-methoxyethoxy))-4-((3-phenyl-isoxazol-5-yl)-methoxy-)-quinazoline], for which the “EGFR inhibition rate (%)” value was found to be 27.7%.

For `COCCOc1cc2ncnc(OCc3cc(-c4ccc(C)cc4)no3)c2cc1OCCOC` [Compound Q-30, (6,7-bis(2-methoxyethoxy))-4-((3-(4-methylphenyl)-isoxazol-5-yl)-methoxy-)-quinazoline], the “EGFR inhibition rate (%)” value was found to be 20.4%.

Turning to `COCCOc1cc2ncnc(OCc3cc(-c4ccc(OC)cc4)no3)c2cc1OCCOC` [Compound Q-31], the “EGFR inhibition rate (%)” value worked out at 38.2%.

Regarding `COCCOc1cc2ncnc(OCc3cc(-c4ccccc4Cl)no3)c2cc1OCCOC` [Compound Q-32], the “EGFR inhibition rate (%)” value is recorded as 11.8%.

Regarding `COCCOc1cc2ncnc(OCc3cc(-c4ccc(Cl)cc4Cl)no3)c2cc1OCCOC` [Compound Q-34, (6,7-bis(2-methoxyethoxy))-4-((3-(2,4-dichlorophenyl)-isoxazol-5-yl)-methoxy-)-quinazoline], the “EGFR inhibition rate (%)” value was 7.8%.

As for `COCCOc1cc2ncnc(OCc3cc(-c4ccc(Br)cc4)no3)c2cc1OCCOC` [Compound Q-35], the “EGFR inhibition rate (%)” value is given as 6.4%.

“(6,7-bis(2-methoxyethoxy))-4-((3-(4-chlorophenyl)-isoxazol-5-yl))-methoxy-)-quinazoline [Compound Q-33]”: the “EGFR inhibition rate (%)” value was found to be 14.1%.
